Patent publication EP1153612A1, “ANTICANCER AGENT POTENTIATORS” (Tsuruo, Takashi, priority 1999, dated 2000)

Experiments:
[1] = test system: human colon adenocarcinoma cell HT-29; assay: Sensitivity of cells to anticancer drug by colony formation method (M phase-synchronized cells, with or without proteasome inhibiting agent); type: cell-based; conditions: for change of cell-killing effect of camptothecin: lactacystin 10 µM 13 hours, camptothecin 4 hours, FIG. 14
Description: In the glucose starvation environment found in the solid cancer, the effect of combined use of the proteasome inhibitor in a human colon adenocarcinoma cell HT-29 with the anticancer drug targeting topoisomerase II was tested.
Concerning culture media, for a culture condition in a normal state, RPMI 1640 medium (Nissui Pharmaceutical Co.-made) to which a 5% FBS (fetal bovine serum) was added and for the culture condition in the glucose starvation state symbolically found in the solid cancer, RPMI 1640 medium (Lifetech Oriental-made), lacking glucose, in which the 5% FBS was added were used, respectively. Culture was carried out using a CO2 incubator (Tabai Espec-made) under conditions of 5% CO2/95% air and humidity 100%.
In order to test sensitivity to the anticancer drug, the cell cycle synchronization culture methodwas employed. Nocodazol (Sigma made) was used to synchronize the cell cycle, cells in a logarithmic proliferation phase were treated with 40 ng/ml Nocodazol for 9 hours, and cells accumulated in cell division phase (Mpahse) were collected by gentle pipetting. M phase-synchronized cells collected through these steps were washed with PBS (phosphate buffered saline) followed by inoculation of 1×10^5 cells per well of 12 well-culture plate.
M phase-synchronized cells were cultured under the normal condition and the glucose starvation condition to conduct treatments with the proteasome inhibiting agent and the anticancer drug as follows. For cells under the glucose starvation condition, the culture medium, to which the proteasome inhibiting agent and the protease inhibiting agent not inhibiting proteasome were added as the control group, and the culture medium, to which no inhibiting agent has been added, was used. For cells under the normal condition, the culture medium, to which each inhibiting agent was not added, was used. After inoculation of cells, culture was carried out for 13 hours in each culture medium. […]
Sensitivity of cells to the anticancer drug was measured using the colony formation method. As described above, cells treated with the proteasome inhibiting agent and the anticancer drug were washed with PBS followed by soaking in trypsin (Lifetech Oriental made) solution and removed from a culture dish to suspend in an ordinary culture medium. These cells were inoculated again in 500 to 5000 cells for a 10 cm culture dish and cultured for 10 to 12 days to form a colony. The colony formed was fixed by 10% formaldehyde solution and stainedwith 0.01% crystal violet (Wako Pure Chemicals made) solution. Number of colony was counted and a Cell survival rate was calculated assuming that the number of colonies untreated with the anticancer drug is 1.
For reference, the proteasome inhibiting agent and the protease inhibiting agent not inhibiting proteasome used as described above were as follows. • (1) Proteasome inhibiting agent • . […] MG115 (carbobenzoxy-L-Leucyl-L-Leucyl-L-Norvalinal): final concentration 2.5 µM (Peptide Institute Inc. made) • . MG132 (carbobenzoxy-L-Leucyl-L-Leucyl-Leucinal) : final concentration 2.5 µM (Peptide Institute Inc. made) • . Lactacystin, final concentration 10 µM (Kindly supplied from The Kitasato Institute made) • (2) Protease inhibiting agent not inhibiting proteasome • . E64, final concentration 25 µM (Peptide Institute Inc. made) • . ZLLal (carbobenzoxy-L-Leucyl-L-Leucinal): final concentration 25 µM (Peptide Institute Inc. made)
The cell culture condition for both M phase-synchronized culture method and culture under the glucose starvation condition was as described in Example 1. M phase-synchronized cells were cultured in the culture medium, to which lactacystin of the final concentration 10 µM was added, or the culture medium, to which this was not added, as the proteasome inhibiting agent under the ordinary condition and the glucose starvation condition, respectively, for 13 hours. […]

[2] = test system: human colon cancer cell HT29; assay: Anticancer therapy in human cancer cell-transplanted nude mouse model (size of tumor lump); type: in vivo, nude mouse BALB/cAnNCrj-nu/nu; conditions: Example 5; intraperitoneally three times every 4 days; etoposide 33 mg/kg, lactacystin 40 mg/kg; in combined use lactacystin 5 hours before etoposide; FIG. 11
Excerpt: A human colon cancer cell HT29 was transplanted subcutaneously to a nude mouse to examine a therapeutic effect of combined use of lactacystin, the proteasome inhibiting agent, with etoposide, the anticancer drug targeting topoisomerase II.
As an experimental animal, the nude mouse BALB/cAnNCrj-nu/nu of 8-week old female (Charles River Laboratories product) was used. In order to form a tumor lump in the nude mouse, 1×10^7 HT29 cells was subcutaneously transplanted. After 8 to 10 days of transplanting, the tumor lump of HT29 cells grew to […] and at this point, the therapy was started. […]
The therapy was conducted by dividing the HT29 tumor-transplanted mice into 4 groups to assign 4 animals to 1 group as follows by administering intraperitoneally three times every 4 days: (1) control group untreated with saline, (2) etoposide 33 mg/kg, (3) lactacystin 40 mg/kg, (4) lactacystin 40 mg/kg and etoposide 33 mg/kg. […] Since start of the therapy, a size of the tumor lump was measured to measure effect of the therapy by administration of drugs once every 4 days. […]
The effect of therapy by simultaneous administration of the proteasome inhibiting agent, lactacystin, and the topoisomerase II-targeting anticancer, doxorubicin was examined. […] After start of treatment, once every 4 to 5 days, the size of the tumor lump was measured to measure the effect of treatment by drug administration.

For `CC(=O)N[C@@H](CSC(=O)[C@]1([C@@H](O)C(C)C)NC(=O)[C@H](C)[C@@H]1O)C(=O)O` [lactacystin], the “change of cell-killing effect of bleomycin” value ([1]; glucose starvation condition, lactacystin 7.5 µM 13 hours, bleomycin 4 hours) was “enhances the cell-killing effect”, the “change of cell-killing effect of mitomycin C” value ([1]; glucose starvation condition, lactacystin 7.5 µM 13 hours, mitomycin C 4 hours) was “enhances the cell-killing effect of mitomycin C” and the “change of cell-killing effect of camptothecin” value ([1]; glucose starvation condition) was “enhances the cell-killing effect of camptothecin”. The “effect on etoposide sensitivity” value ([1]; glucose starvation condition, lactacystin 10 µM, FIG. 3) was “enhances sensitivity to etoposide”, the “change of cell-killing effect of cisplatin” value ([1]; ordinary culture condition and glucose starvation condition, lactacystin 7.5 µM 13 hours, cisplatin 4 hours, FIG. 18) was “enhances the cell-killing effect of cisplatin” and the “change of cell-killing effect of camptothecin” value ([1]; ordinary culture condition) was “the cell-killing effect thereof is enhanced”. For the same compound, the “suppression of tumor proliferation (size of the tumor lump)” value [2] was “less suppression of tumor proliferation”.
